Where a SMILES comes first, the peptide text is derived from it.
Tests used:
[1] = system: S. aureus (Liberec) biofilm; assay: Bacterial biofilm, remaining metabolic activity (MTT); assay type: cell-based, Staphylococcus aureus; conditions: remaining metabolic activity of biofilm, 20 h
Experimental: (§1) Inoculum of S. aureus (Liberec) or P. aeruginosa (Liberec) cultivated overnight in BHI medium was diluted with fresh BHI medium containing 1% glucose to a final concentration to be ca. 10^8 CFU/ml. Then this was pipetted (100 μl) to 96-multiwell polystyrene plate which was incubated at 37° C. under rotary shaking (300 RPM) for 24 h. Medium without bacteria in the wells was used as a negative control. Supernatant from each well was drained and the biofilm formed on the bottom and on the walls of the wells was cautiously washed three times by sterile physiological solution (300 μl). The peptides tested in the concentrations of 1-128 μmol.l^−1 were prepared by twofold serial dilution of their stock solution (1 mmol.l^−1) in fresh BHI medium and then pipetted (100 μl) to the wells with formed biofilms. The biofilms covered by BHI medium without peptide were used as a positive control. The plates were then incubated for 20 h as described above. After that the liquid was drained out and wells were washed twice with sterile physiological solution.
(§2) The metabolic activity of surviving bacterial cells in the biofilm was determined by staining with MTT (3-(4,5-dimethylthiazol-2-yl)-2,5-diphenyl-2H-tetrazolium bromide) as follows: The mixture of BHI medium (100 μl) and 10 μl of the stock solution of MTT (5 mg/ml in physiological solution) was added to each well and the plate was incubated 40 min at 37° C. The liquid was drained out and the insoluble formazan crystals formed by reduction inside the biofilm were dissolved with dimethyl sulphoxide (100 μl). The intensity of staining in each well was measured as absorbance at 540 nm on a Tecan Infinite M200 Pro reader (Tecan GmbH, Austria). Remaining activity of surviving cells inside the biofilm was expressed for each well in percentage according to the following equation:
(§3) [formula] where A is the absorbance of the tested compound, ABL is the absorbance of the negative control, and AC is the absorbance of control biofilm.

[2] = system: P. aeruginosa (Liberec) biofilm; assay: as above; assay type: cell-based, Pseudomonas aeruginosa; conditions: remaining metabolic activity of biofilm, 20 h
Experimental: as §1, §2, §3

[3] = system: Candida albicans (Olomouc) biofilm; assay: C. albicans biofilm, remaining metabolic activity (XTT); assay type: cell-based
Experimental: Candida albicans (Olomouc) was sub-cultured overnight in YPD medium (10 g yeast extract (DIFCO, USA), 20 g peptone (OXOID), 20 g glucose (Penta) dissolved in 1 L of distilled water) at constant shaking (100 RPM) at 37° C. Next day, the overnight culture was diluted 1:100 into fresh YPD medium and incubated at constant shaking (200 RPM) at 37° C. until the mid-exponential growth phase was reached. Then the cells were harvested and washed twice by centrifugation in physiological solution (5000 RPM; 5 min). Cells were suspended in sterile salt solution and their optical density was determined at 600 nm.
A final yeast suspension was prepared at a cell density of 1×10^6 CFU (corresponding to optical density of 0.17 at 600 nm) in RPMI 1640 medium with L-glutamine (BioSera), NaHCO3 (2 g/l; Penta) and 0.165 mol.l^−1 MOPS (Duchefa)—further as RPMI broth medium 1.
Biofilms were formed on commercially available sterile, polystyrene, flat-bottomed, 96-well microtiter plates (TPP, SW). Cell suspension (100 μl) was pipetted into selected wells of a microtiter plate and incubated without shaking for 2 hours at 37° C. Afterwards, the wells were washed twice with sterile PBS buffer (1.44 g Na2HPO4, 0.24 g KH2PO4, 0.2 g KCl and 8 g NaCl in 1 l distilled water, pH=7; Penta). Fresh RPMI broth medium 1 (100 μl) was added to each well and the plate was sealed with parafilm and incubated without shaking for 48 hours at 37° C.
Planktonic and non-adherent cells were removed by threefold washing of the biofilm with sterile PBS buffer (200 μl). A twofold serial dilution was used to reach required peptide concentration (in RPMI broth medium 1) in each well. Peptide concentrations range was between 0.39-200 μmol.l^−1. Plates were then sealed with parafilm and incubated for 20 hours at 37° C.
The metabolic activity of surviving Candida cells in the treated biofilm was determined by staining with XTT (2,3-Bis(2-methoxy-4-nitro-5-sulphophenyl)-2H-tetrazolium-5-carboxanilide). Stock solution of PMS (phenazine methosulfate; 7.5 g/l; SIGMA, Czech Republic) stored at −20° C. was diluted in PBS buffer 1:100. Diluted PMS was further mixed (2:25) with stock solution of XTT (0.5 g/l; Alchimica, Slovakia) dissolved in PBS/RPMI broth medium (1:1). Mixture (100 μl) of PMS and XTT was added into treated biofilm in the wells and incubated for 90 min at 37° C. Then the intensity of staining in each well was measured as absorbance at 540 nm on a Tecan Infinite M200 Pro reader (Tecan GmbH, Austria). Remaining metabolic activity of the cells in the biofilm was expressed for each well in percentage and calculated as follows:
[formula] where A is the absorbance of tested compound, ABL is the absorbance of negative control and AC is the absorbance of control untreated biofilm. The non-inoculated wells served as negative control. Inoculated wells not treated with compound served as positive control. Amphotericin B was used as control drug to ensure quality of Candida albicans. The values of remaining metabolic activity of treated biofilms are shown at Table 5.

in vitro = conditions: human
Experimental: The peptides in the concentrations 2-200 μmol.l^−1 were incubated with the suspension of human red blood cells (5% v/v) for 1 h at 37° C. in a physiological solution at a final volume of 0.2 ml. The samples were then centrifuged for 5 min at 250 g, and the absorbance of the supernatant was determined at 540 nm. Supernatants of red blood cells suspended in physiological solution and in 0.2% (v/v) TRITON X100 in physiological solution served as controls for zero hemolysis (blank) and 100% hemolysis, respectively. Hemolytic activity is expressed as the peptide concentration required for lysis of 50% of human erythrocytes in the assay (LC50).

[4] = peptide concentration 8 μmol · l^−1
[5] = peptide concentration 16 μmol · l^−1
[6] = peptide concentration 32 μmol · l^−1
[7] = peptide concentration 64 μmol · l^−1
[8] = peptide concentration 128 μmol · l^−1
[9] = peptide concentration 6.25 μmol · l^−1, 20 hours
[10] = peptide concentration 12.5 μmol · l^−1, 20 hours
[11] = peptide concentration 25 μmol · l^−1, 20 hours
[12] = peptide concentration 50 μmol · l^−1, 20 hours
[13] = peptide concentration 100 μmol · l^−1, 20 hours
[14] = peptide concentration 200 μmol · l^−1, 20 hours

Row | Compound | Metabolic activity (%) S. aureus (Liberec) [1, 4] [%] | Metabolic activity (%) S. aureus (Liberec) [1, 5] [%] | Metabolic activity (%) S. aureus (Liberec) [1, 6] [%] | Metabolic activity (%) S. aureus (Liberec) [1, 7] [%] | Metabolic activity (%) S. aureus (Liberec) [1, 8] [%] | Metabolic activity (%) P. aeruginosa (Liberec) [2, 4] [%] | Metabolic activity (%) P. aeruginosa (Liberec) [2, 5] [%] | Metabolic activity (%) P. aeruginosa (Liberec) [2, 6] [%] | Metabolic activity (%) P. aeruginosa (Liberec) [2, 7] [%] | Metabolic activity (%) P. aeruginosa (Liberec) [2, 8] [%] | Metabolic activity of C. albicans (%) [3, 9] [%] | Metabolic activity of C. albicans (%) [3, 10] [%] | Metabolic activity of C. albicans (%) [3, 11] [%] | Metabolic activity of C. albicans (%) [3, 12] [%] | Metabolic activity of C. albicans (%) [3, 13] [%] | Metabolic activity of C. albicans (%) [3, 14] [%] | CC50 at 1 h (in vitro) [µM]
1 | CC[C@@H](C)[C@@H](NC(=O)CN)C(=O)N[C@H](CC(C)C)C(=O)N[C@H](CO)C(=O)N[C@H](CO)C(=O)N[C@H](CC(C)C)C(=O)N[C@H](CC(C)C)C(=O)N[C@H](CCCCN)C(=O)N[C@H](CCCCN)C(=O)N[C@H](CC(C)C)C(=O)N[C@H](CCCCN)C(=O)N[C@H](CCCCN)C(=O)N[C@@H](C(=O)N[C@@H](C(=O)N[C@H](C)C(=O)N[C@H](CCCCN)C(N)=O)[C@H](C)CC)[C@H](C)CC [IV] (HELM PEPTIDE1{G.[dI].[dL].[dS].[dS].[dL].[dL].[dK].[dK].[dL].[dK].[dK].[dI].[dI].[dA].[dK].[am]}$$$$V2.0) | 65.5 | 34.2 | 7.1 | 3.0 | 0.0 | 56.5 | 69.5 | 56.0 | 59.6 | 21.7 | 106.9 | 37.2 | 6.0 | 2.3 | 2.1 | 0.5 | 333
2 | H-GIMSSLMKKLKKIIAK-NH2 [I] | 111.6 | 103.3 | 111.2 | 101.9 | 11.4 | 86.4 | 87.7 | 89.6 | 62.9 | 43.4 | 100.4 | 108.0 | 130.7 | 57.5 | 28.2 | 8.1 | > 400
3 | H-GILSSLWKKLKKIIAK-NH2 [XII] | 52.2 | 31.5 | 18.9 | 14.7 | 1.0 | 77.3 | 69.3 | 66.9 | 44.4 | 57.9 | 86.8 | 80.3 | 94.8 | 63.6 | 6.2 | 3.2 | 197

— US10160785B2, “Antimicrobial peptides and their use for the treatment of topical infections” (priority 2015, dated 2018)
